This is an account of results in patent publication US20090227606A1, “Methods for Preventing or Treating Acute and Chronic Pain” (priority 2006, published 2009).

The structures appear in SMILES notation. “Also recorded” adds a separate entry of the source.

One assay has as its system astrocytic activation. The conditions noted are these: DeLeo et al. 1987; cited from earlier work.
The test system of the next assay is GFAP. Nature of the assay: GFAP expression in mouse spinal cord dorsal horn. The assay is classed as in vivo. The conditions noted are these: dorsal horn upper laminae, day 12, 10 mg/kg i.p. daily. The procedure: With these in vivo data collected, further experiments were performed in the transgenic mice to more clearly define the effects of propentofylline treatment on GLT-1 and GLAST in the spinal cord. As discussed above, following in vivo testing, mice were transcardially perfused and tissue was fixed with paraformaldehyde. Lumbar spinal cord sections were identified and post-fixed in paraformaldehyde. After one week in sucrose to prevent freeze fracture, spinal cord segments were frozen in dry ice, mounted and prepared with cryostat sectioning. Sections were then subjected to immunohistochemical analysis. […] In order to quantitate the relative number of eGFP (marker for GLT-1) or DsRed (marker for GLAST) puncta in each spinal cord dorsal horn, images using a fluorescence microscope were taken with a Q-Fire cooled camera (397 ms exposure). […] An observer blind to the treatment groups was used to count the relative number of GLT-1 or GLAST positive puncta in the ipsilateral (injured) dorsal horn versus the contralateral (non-injured) dorsal horn. […]
As described previously with rats, mice were transcardially perfused with 0.1 M PBS (phosphate-buffered saline), pH 7.4, followed by 4%-paraformaldehyde in PBS on day 12 post-L5 spinal nerve transection. […] The sections were examined with a fluorescence microscope, and images were captured with a Q-Fire cooled camera. […]

In a further assay the test system is GLT-1 mRNA. The assay can be described thus: Real Time RT-PCR of cultured astrocytes, GLT-1 mRNA. The assay is classed as cell-based, rat. The procedure:
After approximately 14 days (2 days after subplating into plates, DIV 14) astrocytes had formed a confluent monolayer. […] Phase contrast microscopy was then carried out in order to assess the morphology of cells after the various treatments. Length of astrocyte processes was quantified by measuring all processes in 2-3 phase contrast images/group by an independent observer, blinded to the treatment groups using Image J v1.34s (National Institutes of Health, Bethesda, Md.).
Total RNA was isolated from astrocyte cultures using the Qiagen RNeasy mini-kit (Qiagen Inc., Valencia, Calif.) according to the manufacturer's protocol for isolation of total RNA from animal cells. Reverse transcription (RT) was carried out using the high-capacity cDNA archive kit (Applied Biosystems, Foster City, Calif.) according to the vendor's protocol. Real-time RT-PCR reactions were carried out in a total reaction volume of 25 μL containing a final concentration of 1.5 U Platinum Taq DNA polymerase (Invitrogen Corporation, Carlsbad, Calif.); 20 mM Tris HCl (pH 8.4); 50 mM KCl; 3 mM MgCl2; 200 μM dGTP, dCTP, and dATP; 400 μM dUTP and 1 U of UDG (uracyl DNA glycosylase); 900 nM of forward and reverse primers; 300 nM Taqman probe; and 5 μL of cDNA (50 ng) from the RT step. The iCycler™ Multicolor Real-Time PCR detection system (Bio-Rad Laboratories, Hercules, Calif.) was used to quantify PCR product. The fluorescence and threshold values (CT) obtained were used to compare the relative amount of target mRNA in experimental groups to those of controls using the 2^−ΔΔC^T method (Livak, K. J. and T. D. Schmittgen. 2001. Methods 25:402-408). Each experiment was run twice and samples were run in duplicate. For each sample, the mean CT value for the control gene (GAPDH) was then subtracted from the mean CT value for the gene of interest (GLT-1, GLAST) to obtain a ΔCT value. The ΔCT values for the control group (untreated) were then averaged and subtracted from the ΔCT for the experimental groups to obtain the ΔΔCT. The relative fold change from control was then expressed by calculation of 2^−ΔΔC^T for each sample and the results are expressed as the group mean fold change±SEM.

Take `CCCn1cnc2c1c(=O)n(CCCCC(C)=O)c(=O)n2C` [propentofylline]: the astrocytic activation entry in the assay with astrocytic activation is reported as “attenuate astrocytic activation”. Moreover, the “injury-induced GFAP expression” value with GFAP is recorded as “suppressed injury-induced GFAP expression”. Also, in the assay on GLT-1 mRNA (day 3, high dose), the “increase in GLT-1 mRNA” value is on record as 3 fold. The “induction of GLT-1 mRNA” value with GLT-1 mRNA (day 7, high dose) is 20 fold. Further, the “GLT-1 mRNA level, in words” value in the assay with GLT-1 mRNA (propentofylline 10, 100, 1000 μM, db-cAMP 250 μM, relative to GAPDH) was “enhancement of GLT-1 and GLAST mRNA levels in a dose-dependent manner; also recorded: dose-dependently induced GLT-1 and GLAST at the mRNA level”.
